{
  "source": "paper PMC7509555",
  "about": "“An In Vitro Study for Evaluating Permeability and Metabolism of Kurarinone” (Evidence-based Complementary and Alternative Medicine : eCAM, 2020)",
  "key": {"PAMPA permeability study": {"assay": "PAMPA permeability study", "assay_type": "in vitro ADME", "details": "for Papp at 5 h: PAMPA, room temperature, read-out: PAMPA effective permeability Pe", "experimental": "The PAMPA method was used to measure the membrane permeability values, as described by Singh et al. in an earlier study. Drug samples were dissolved in DMSO and then diluted to 10 mM concentrations as a stock solution. 300 μL diluted drugs solution was filled in the PAMPA plate as the “donor” wells, and the 96-well filter plate with a synthetic phospholipid membrane was then placed on the donor wells. The “acceptor” wells were filled with 200 μl of buffer solution, and the PAMPA instruments were incubated at room temperature for 5 h. Kurarinone permeability was assessed in quadruplicate at pH 4.0 and 7.4. […] At the end of the incubation, kurarinone and the marker compounds in the donor and acceptor wells were determined by HPLC, and permeability was calculated."}, "HL-7702 cells": {"system": "HL-7702 cells", "details": "cited from earlier work"}, "CYP1A2": {"target": "T1, CYP1A2 (Rattus norvegicus, UniProt P04799)", "T1 construct": "tissue Research Institute for Liver Disease Co., Ltd. (Shanghai, China); host or cells: pooled rat liver microsomes", "T1 sequence (P04799 2-513)": "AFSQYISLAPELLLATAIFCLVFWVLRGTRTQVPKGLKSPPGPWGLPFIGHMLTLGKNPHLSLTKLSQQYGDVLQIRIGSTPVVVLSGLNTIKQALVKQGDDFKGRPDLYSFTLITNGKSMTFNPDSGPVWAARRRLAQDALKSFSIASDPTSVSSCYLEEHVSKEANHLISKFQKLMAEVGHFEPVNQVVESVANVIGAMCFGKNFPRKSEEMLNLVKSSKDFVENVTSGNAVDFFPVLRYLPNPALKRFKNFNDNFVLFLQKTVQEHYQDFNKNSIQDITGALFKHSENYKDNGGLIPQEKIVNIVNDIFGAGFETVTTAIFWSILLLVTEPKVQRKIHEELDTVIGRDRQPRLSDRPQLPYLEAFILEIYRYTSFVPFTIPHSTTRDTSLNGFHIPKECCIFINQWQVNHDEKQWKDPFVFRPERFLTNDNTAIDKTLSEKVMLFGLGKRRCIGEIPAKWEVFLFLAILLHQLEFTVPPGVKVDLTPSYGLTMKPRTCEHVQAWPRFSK", "assay": "Inhibition of CYP1A2 activity (phenacetin O-deethylation) in RLMs", "assay_type": "in vitro ADME", "experimental": "(§1) Samples were prepared in a total volume of 200 μL, containing 0.3 mg/mL protein in human liver microsomes or 15 nM protein in recombinant human supersomes, probe substrates or 50 μM kurarinone, 10 mM MgCl2, 10 mM glucose-6-phosphate, and 1 unit/mL of glucose-6-phosphate dehydrogenase. The reactions were activated by adding NADPH following preincubation at 37°C for 5 min. The reactions were maintained at 37°C for 1 h and terminated by adding 200 μL ice-cold acetonitrile. The supernatant (10 μL) collected from the samples that were centrifuged (20,000 g, 20 min, 4°C) was injected into the HPLC system for analysis. Control incubations devoid of NADPH or kurarinone were performed parallelly to ensure that the produced metabolites were NADPH- or kurarinone-dependent.\nRLMs were used to assess the inhibitory effects of kurarinone (100 μM) on six different human isoforms (CYP1A2, CYP2C9, CYP2D6, CYP2E1, CYP3A4, and CYP2C19). The probe substrates used in this experiment were 40 μM phenacetin for CYP1A2, 10 μM diclofenac for CYP2C9, 25 μM dextromethorphan for CYP2D6, 120 μM chlorzoxazone for CYP2E1, 35 μM testosterone for CYP3A4, and 20 μM (S)-mephenytoin for […] as described earlier. The reaction system has been described in Section 2.3. […] Dixon and Lineweaver–Burk plots were formed to confirm the reversible inhibition type, and a second plot of slopes from the Lineweaver–Burk plot over the concentrations of kurarinone was used to estimate the Ki value. All incubations were performed in triplicates, and mean values were used for analysis."}, "[1]": {"system": "rat liver microsomes (RLMs)", "assay": "Enzyme kinetics of P1 formation from kurarinone in RLMs", "assay_type": "in vitro ADME", "experimental": "as §1\n(§2) Various concentrations of kurarinone (1–200 μM) were incubated with RLMs, MLMs, PLMs, RAMs, CYP1A2, and CYP2D6 to estimate kinetic parameters. The rest of the other conditions remained the same as described in Section 2.3. […] The apparent Km and Vmax values were calculated from nonlinear regression analysis of experimental data according to the Michaelis–Menten equation, and the results were represented graphically by Eadie–Hofstee plots. All incubations were carried out as triplicate independent experiments, and kinetic constants were recorded as mean ± SD."}, "[2]": {"assay": "Prediction of in vivo hepatic clearance in rat from RLM kinetics", "assay_type": "in vitro ADME", "text": "(§3) The following equations were utilized to predict the in vivo hepatic clearance of kurarinone in humans and rats.(1) CLint in vitro=Vmax/Km, (2) […], (3) CLH=QH·fu·CLint in/QH+fu·CLint in vivo, where the SF (scaling factor) represents the milligrams of microsomal protein per gram of the liver multiplied by the grams of liver weight; CLint is the intrinsic metabolic clearance; CLH is hepatic clearance; fu is the free fraction in the blood (no data were available for kurarinone; thus, fu was arbitrarily proposed to be 1); and QH is the hepatic blood flow. The CLH of kurarinone was calculated using equations (1)–(3)."}, "primary rat hepatocytes": {"system": "primary rat hepatocytes", "details": "cited from earlier work"}, "[3]": {"design": "method as in PMID 25703950", "details": "rats, cited from earlier work"}, "[4]": {"system": "human liver microsomes (HLMs)", "assay": "Enzyme kinetics of P1 formation from kurarinone in HLMs", "assay_type": "in vitro ADME"}, "[5]": {"system": "monkey liver microsomes (MLMs)", "assay": "Enzyme kinetics of P1 formation from kurarinone in MLMs", "assay_type": "in vitro ADME", "experimental": "as §1, §2"}, "[6]": {"assay": "Prediction of in vivo hepatic clearance in human from HLM kinetics", "assay_type": "in vitro ADME", "text": "as §3"}},
  "note": "Where two headings read alike, the source gives them in different places.",
  "data": [
    {"smiles": "C=C(C)[C@H](CC=C(C)C)Cc1c(O)cc(OC)c2c1O[C@H](c1ccc(O)cc1O)CC2=O", "note": "[Kurarinone]", "values": [
      {"measurement": "Papp at 5 h", "setting": "PAMPA permeability study; pH = 4", "value": "3.87 ± 1.39", "unit": "×10⁻⁶ cm/s"},
      {"measurement": "Papp at 5 h", "setting": "PAMPA permeability study; pH = 7", "value": "2.14 ± 0.82", "unit": "×10⁻⁶ cm/s"},
      {"measurement": "PAMPA permeability class", "setting": "PAMPA permeability study; pH 4.0 and 7.4", "value": "moderate permeability"},
      {"measurement": "cytotoxicity", "setting": "HL-7702 cells", "value": "remarkable cytotoxicity"},
      {"measurement": "inhibition type against CYP1A2", "setting": "CYP1A2; Dixon and Lineweaver–Burk plots", "value": "competitive"},
      {"measurement": "IC50", "setting": "CYP1A2; phenacetin O-deethylation, RLMs, read-out: IC50 against CYP1A2", "value": 10, "unit": "µM"},
      {"measurement": "inhibition at 1 h, 100 μM", "setting": "CYP1A2; rat, rat liver microsomes, probe phenacetin 40 μM (O-deethylation), 100 μM kurarinone, 40 μM phenacetin, RLMs", "value": "> 90", "unit": "%"},
      {"measurement": "Ki", "setting": "CYP1A2; second plot of slopes from Lineweaver–Burk plots, RLMs", "value": 8.13, "unit": "µM"},
      {"measurement": "Vmax of P1 formation", "setting": "[1]", "value": "3.34 ± 0.19", "unit": "nmol·min^−1·mg^−1 protein"},
      {"measurement": "Km", "setting": "[1]; kurarinone 1–200 μM", "value": "18.1 ± 3.91", "unit": "µM"},
      {"measurement": "percentage of CLH versus hepatic blood flow (QH)", "setting": "[2]; rat", "value": 83.35, "unit": "%"},
      {"measurement": "predicted hepatic clearance CLH", "setting": "[2]; rats, from RLM kinetic parameters of P1, fu assumed 1", "value": 46.01, "unit": "mL/min/kg body weight"},
      {"measurement": "cytotoxicity", "setting": "primary rat hepatocytes", "value": "remarkable cytotoxicity"},
      {"measurement": "t1/2", "setting": "[3]; intravenous 10 mg/kg", "value": 1.81, "unit": "h"},
      {"measurement": "Cmax", "setting": "[3]", "value": 1668.01, "unit": "ng/mL"},
      {"measurement": "Vmax of P1 formation", "setting": "[4]", "value": "1.56 ± 0.24", "unit": "nmol·min^−1·mg^−1 protein"},
      {"measurement": "Km", "setting": "[4]; kurarinone 1–200 μM", "value": "22 ± 4.93", "unit": "µM"},
      {"measurement": "Vmax of P1 formation", "setting": "[5]", "value": "4.83 ± 0.14", "unit": "nmol·min^−1·mg^−1 protein"},
      {"measurement": "Km", "setting": "[5]; kurarinone 1–200 μM", "value": "21 ± 3.42", "unit": "µM"},
      {"measurement": "percentage of CLH versus hepatic blood flow (QH)", "setting": "[6]; human", "value": 81.27, "unit": "%"},
      {"measurement": "predicted hepatic clearance CLH", "setting": "[6]; humans, from HLM kinetic parameters of P1, fu assumed 1", "value": 16.82, "unit": "mL/min/kg"},
      {"measurement": "clearance category based on CLH projected from in vitro data", "setting": "[6]; in humans, high-clearance = >70% liver blood flow", "value": "high-clearance"}
    ]}
  ]
}
